The conditions of data set [1]: water, pH=4.0-8.0; cited from earlier work.
The conditions of data set [2]: water, 25° C.; cited from earlier work.
Data set [3] can be described thus: Distribution coefficient of propiverine-hydrochloride (1-octanol/water, 25° C.). The class given is physicochemical. As for the experimental part: (§1) The distribution coefficient and the solubility of propiverine-hydrochloride in dependence of the pH value are known (determination of the amount of propiverine in the aqueous phase via HPLC).
Distribution coefficient of propiverine-hydrochloride (1-octanol/water, 25° C.)

Data set [4] in a line: Solubility of propiverine-hydrochloride in water. The class given is physicochemical. The conditions noted are these: aqueous buffer.
Text: as §1
Solubility of propiverine-hydrochloride in water

Values joined by “and” are separate entries in the source; they are usually repeats but may differ in a detail not shown here. Identical values can stand only once. Counter-ions that a name gives are not always drawn. Like-named read-outs stand apart in the source and are kept apart here.

As for `CCCOC(C(=O)OC1CC[N+](C)([O-])CC1)(c1ccccc1)c1ccccc1` (stereo not shown) [Propiverine-N-oxide, propiverine-N-oxide], in data set [1], the solubility (usually how much of the substance goes into solution per volume) was > 127 mg/mL and > 99 mg/mL.
Consider `CCCOC(C(=O)OC1CCN(C)CC1)(c1ccccc1)c1ccccc1` [propiverine, 2,2-diphenyl-2-(1-propoxy)acetic acid(1-methyl-piperid-4-yl)ester], for which the pKa value in data set [2] was 7.35±0.1.
As to `CCCOC(C(=O)OC1CCN(C)CC1)(c1ccccc1)c1ccccc1` [propiverine-hydrochloride], the “Log [K]” value in data set [3] (pH 1.0) is listed as 1.3; in data set [3] (pH 5.0), 1.1; in data set [3] (pH 6.0) it was 2.4; in data set [3] (pH 6.5), 2.9; in data set [3] (pH 6.8) it was 3.8; in data set [3] (pH 7.0), 4.0. Moreover, the entries for the “Log [K]” value in data set [3] (pH 7.2), in data set [3] (pH 7.5) and in data set [3] (pH 8.0) were 4.2, 4.4 and 4.7, respectively. The “K (distribution coefficient)” value was 22 in data set [3] (pH 1.0, mean of three); 13 in data set [3] (pH 5.0, mean of three); 227 in data set [3] (pH 6.0, mean of three); 884 in data set [3] (pH 6.5, mean of three); 6904 in data set [3] (pH 6.8, mean of three); 10346 in data set [3] (pH 7.0, mean of three). Moreover, the “K (distribution coefficient)” value in data set [3] (pH 7.2, mean of three) came to 15438; in data set [3] (pH 7.5, mean of three) it was 26068; in data set [3] (pH 8.0, mean of three) it was 52372. The solubility in data set [4] (pH 5.8, 24 ° C.) was more than 200 mg/mL; in data set [4] (pH 5.8, 37 ° C.), 368 mg/mL; in data set [4] (pH 6.0, 24 ° C.), 209 mg/mL; in data set [4] (pH 7.0, 24 ° C.) it was 1.2 mg/mL; in data set [4] (pH 7.2, 24 ° C.), 1.1 mg/mL.

Values taken from patent publication US7943176B2, “Oral dosage form for propiverine or its pharmaceutically acceptable salts with an extended release of the active ingredient” (Apogepha Arzneimittel GmbH, priority 2001, dated 2011).
